# Marks after values point to notes of the source that are not given here.
# Key:
# Type in all cases: in vivo, human (in female SCID mice)
# [1] = test system: Ly19 lymphoma (cell line Ly-19); experiment: Sub-cutaneous Ly19 lymphoma model, tumor volume (Example 1); settings: for Pct Decrease in AUC Relative to Mean Vehicle AUC: Days 0 through 21; for Change in Slope: log tumor volume, slope (day 21 to 62) − slope (day 13 to 21)
# Method: (§1) Tumor growth was monitored with vernier calipers. The mean tumor volume was calculated using the formula V=W^2×L/2.
# P-values <0.05 were considered significant.
# [2] = test system: WSU-Luc lymphoma (cell line WSU-DLCL2); experiment: Subcutaneous WSU-Luc lymphoma model, tumor volume (Example 2); settings: Compound III-1 3 mg/kg, PO, qd; Days 0 through 20
# Method: as §1
# (§2) The statistical methodology used in these experiments was the same as that described in Example 1 above.
# [3] = test system: primary diffuse large B-cell lymphoma PHTX-22-06; experiment: Sub-cutaneous primary diffuse large B-cell lymphoma model PHTX-22-06, tumor volume (Example 3); settings: Compound III-1 20 mg/kg, PO, bid; Days 0 through 27
# Method: Tumor growth was monitored with vernier calipers. The mean tumor volume was calculated using the formula V═W^2×L/2.
# The animals were inoculated with 2×5 mm^3 tumor mass from primary […] tumor chunk at implant site Flank (trocar).
# as §2
# [4] = test system: Ly19-Luc disseminated lymphoma; experiment: Disseminated Ly19-Luc lymphoma model, Experiment #1 (Example 4); settings: for Maximum Percent Body Weight Change / TGI Mean / BW change (maximum body-weight change): Day 24; for TGI: calculated on Day 24; for number of mice remaining by the end of the study: Day 132
# Method: (§3) The in vivo experiments using the disseminated Ly19-Luc lymphoma model were performed in duplicate. […] Tumor volumes were estimated once weekly throughout the inoculation and treatment period using the Xenogen IVIS® imaging system (Xenogen Corporation, Alameda, Calif.). To image the mice, an intraperitoneal (IP) injection of […] (15 mg/ml), was administered 10 minutes prior to procedure and mice were anesthetized with 2% isofluorane 2-5 minutes throughout the scanning procedure. For Xenogen imaging, each mouse was imaged on dorsal and ventral views. The sum of 2 photon flux measurements was used for the analysis.
# The antitumor effects of each treatment group were determined by calculating the percent TGI ([Δ control mean tumor volume−Δ treated mean tumor volume]×100/Δ control mean tumor volume) at the end of treatment. Mice were weighed once weekly for the duration of the study and the maximal percent body weight change was determined during the treatment period. […] Animals were removed from the study when they reached humane endpoints (>20%, body weight loss or paralysis of either both front or hind limbs), the medial survival for each group was determined and the survival rate of treatment groups were compared to control. Treatment groups were evaluated to determine if the effects of combination treatment were synergistic, additive or sub-additive relative to control.
# (§4) The photon flux data was log10 transformed, and these values over the treatment period were compared across treatment groups to assess if the differences in the trends over time were statistically significant. A mixed-effects linear regression model using a restricted maximum likelihood was fit to the data. An ANOVA test was performed to determine if there was a statistically significant difference between the treatment groups and control.
# (§5) Log10-transformed fold change photon flux values (tumor burden) from baseline were also used to calculate AUC values for each animal. The AUC values from the mice in a given treatment group were then averaged together to generate mean AUC values and associated standard errors.
# (§6) A synergy score calculation was used to address the question of whether the effects of the combination treatment were synergistic, additive, or sub-additive relative to the individual treatments.
# (§7) To compare the tumor regrowth rates after stopping treatment, mixed-effects piecewise linear regression models were built separately for each treatment group with mice monitored beyond treatment period. All P-values <0.05 were called significant in this report.
# (§8) The survival rates of the animals in each treatment group were plotted using Kaplan-Meier curves and the log rank test was used to compare survival rates among pairs of treatment groups.
# [5] = test system: Ly19-Luc disseminated lymphoma; experiment: Disseminated Ly19-Luc lymphoma model, Experiment #2 (Example 4)
# Method: as §3
# The antitumor effects of each treatment group were determined by calculating the percent TGI ([Δ control mean tumor volume−Δ treated mean tumor volume]×100/Δ control mean tumor volume) at the end of treatment. Mice were weighed once weekly for the duration of the study and the maximal percent body weight change was determined during the treatment period. Animals were monitored for survival up to 132 days following treatment. Animals were removed from the study when they reached humane endpoints (>20%, body weight loss or paralysis of either both front or hind limbs), the medial survival for each group was determined and the survival rate of treatment groups were compared to control. Treatment groups were evaluated to determine if the effects of combination treatment were synergistic, additive or sub-additive relative to control.
# as §4, §5, §6, §7, §8
# Mice were dosed according to the following treatment groups:
# Mice were weighed and tumor volumes were estimated with Xenogen signal (average photon flux) calculation once a week throughout the inoculation and the treatment period and after the treatment until the end of study.
# Treatment started 7 days following the inoculation of tumor cells into the tail vein, with an average photon flux measurement of 1×10^7 on treatment Day 0.
# [6] = test system: WSU-DLBCL2-Luc disseminated lymphoma; experiment: Disseminated WSU-DLBCL2-Luc lymphoma model, first study (QD dosing); settings: for Median Survival / Maximum Percent Body Weight Change (%) / TGI Mean (%): 1st study; for Maximum Percent Body Weight Change (%) / TGI Mean (%): Day 21; for Pct Decrease in AUC Relative to Mean Vehicle AUC: first study, PO, QD, log10 photon flux vs day AUC, Days 0 through 21
# Method: (§9) The Ly19-Luc, WSU-DLBCL2-Luc and PHTX-22-06 models described in these studies are human DLBCL cell lines, transfected with luciferase. These models were grown in immununocomprimised mice subcutaneously on the flank, or disseminated throughout the body by tail vain injection.
# (§10) Two separate studies were conducted in the WSU-DLBCL2-luc model.
# [7] = test system: WSU-DLBCL2-Luc disseminated lymphoma; experiment: Disseminated WSU-DLBCL2-Luc lymphoma model, second study (BID dosing); settings: for Median Survival / Maximum Percent Body Weight Change (%) / TGI Mean (%): 2nd study; for TGI Mean (%): Day 22; for number of mice remaining at the end of the study: Day 130; for Pct Decrease in AUC Relative to Mean Vehicle AUC: second study, PO, BID, log10 photon flux vs day AUC, Days 0 through 21
# Method: as §9, §10
# [8] = Compound III-1 3 mg/kg Po/QD × 21 days
# [9] = Compound III-1 3 mg/kg po/QD × 21 days
# [10] = Compound III-1 10 mg/kg Po/QD × 21 days
# [11] = Compound III-1 10 mg/kg po/QD × 21 days
# [12] = Compound III-1 3 mg/kg PO QD × 3 wks, Day 23
# [13] = Compound III-1 10 mg/kg po/BID × 21 days
# [14] = Compound III-1 20 mg/kg po/QD × 21 days (dose holiday Day 9 to Day 13)
compound,measurement,setting,value
"COc1cc(Nc2ncc3c(n2)-c2ccc(Cl)cc2C(c2c(F)cccc2OC)=NC3)ccc1C(=O)O [Compound III-1, 4-{[9-chloro-7-(2-fluoro-6-methoxyphenyl)-5H-pyrimido[5,4-d][2]benzazepin-2-yl]amino}-2-methoxybenzoic acid]",Pct Decrease in AUC Relative to Mean Vehicle AUC,[1]; Compound III-1 3 mg/kg qd,22.9 Pct
same,Pct Decrease in AUC Relative to Mean Vehicle AUC,[1]; Compound III-1 10 mg/kg bid,105.6 Pct
same,Pct Decrease in AUC Relative to Mean Vehicle AUC,[1]; Compound III-1 10 mg/kg qd,79.3 Pct
same,Change in Slope,[1]; Compound III-1 10 mg/kg bid,0.018
same,Change in Slope,[1]; Compound III-1 10 mg/kg qd,0.040
same,Pct Decrease in AUC Relative to Mean Vehicle AUC,[2],19.4 Pct
same,Pct Decrease in AUC Relative to Mean Vehicle AUC,[3],79.3 Pct
same,Median Survival,[4]; [8],40 days
same,Maximum Percent Body Weight Change,[4]; [8],"+6.2, Day 24%"
same,TGI Mean,[4]; [8],"89.6, %"
same,Median Survival (Days),[4]; [9],"40, p < 0.01^c Days"
same,BW change (maximum body-weight change),[4]; [9],"+6.2, Day 24%"
same,TGI,[4]; [9],"89.6, p < 0.001%"
same,Median Survival,[4]; [10],63.5 days
same,Maximum Percent Body Weight Change,[4]; [10],"+3.3, Day 24%"
same,TGI Mean,[4]; [10],"100, %"
same,Median Survival (Days),[4]; [11],"63.5, p < 0.01 Days"
same,BW change (maximum body-weight change),[4]; [11],"+3.3%, Day 24"
same,TGI,[4]; [11],"100, p < 0.001%"
same,tolerability,[4]; Compound III-1 at 3 or 10 mg/kg on a QD schedule,well tolerated
same,number of mice remaining by the end of the study,[4]; single agent Compound III-1 3 mg/kg,1 out of 10
same,number of mice remaining by the end of the study,[4]; single agent Compound III-1 10 mg/kg,3 out of 10
same,Mean BW Day 0,"[5]; Compound III-1 3 mg/kg PO QD × 3 wks, Day 0 (baseline)",19.2 g
same,Maximum BW Change (%) Day 22,"[5]; Compound III-1 3 mg/kg PO QD × 3 wks, Day 22",+3.1%
same,Mean BW Day 22,"[5]; Compound III-1 3 mg/kg PO QD × 3 wks, Day 22, in g (unit assumed)",19.81
same,Mean Photon Flux (Day 23),[5]; [12],2.34E+08
same,TGI Day 23,[5]; [12],87.7%
same,tolerability,[5]; Compound III-1 at 3 mg/kg on a QD schedule,well tolerated
same,Mean AUC,"[5]; log10 fold change photon flux vs day, up to Day 23, Compound III-1 3 mg/kg QD",18.2
same,Median Survival,[6]; [9],46.5 days
same,Maximum Percent Body Weight Change (%),[6]; [9],"−3.1, Day 21%"
same,TGI Mean (%),[6]; [9],"50.9, Day 21%"
same,Median Survival,[6]; [11],44 days
same,Maximum Percent Body Weight Change (%),[6]; [11],"−4.5, Day 21%"
same,TGI Mean (%),[6]; [11],"88.2, Day 21%"
same,TGI,[6]; Compound III-1 alone 3 mg/kg QD,50.9%
same,TGI,[6]; Compound III-1 alone 10 mg/kg QD,88.2%
same,Pct Decrease in AUC Relative to Mean Vehicle AUC,[6]; Compound III-1 3 mg/kg,21.1%
same,Pct Decrease in AUC Relative to Mean Vehicle AUC,[6]; Compound III-1 10 mg/kg,42.0%
same,Median Survival,[7]; [13],70 days
same,Maximum Percent Body Weight Change (%),"[7]; Compound III-1 10 mg/kg po/BID × 21 days, Day 19","−3.9, Day 19%"
same,TGI Mean (%),[7]; [13],"99.7, Day 22%"
same,Median Survival,[7]; [14],111.5 days
same,Maximum Percent Body Weight Change (%),"[7]; Compound III-1 20 mg/kg po/QD × 21 days (dose holiday Day 9 to Day 13), Day 9","−8.9, Day 9%"
same,TGI Mean (%),[7]; [14],"99.7, Day 22%"
same,TGI,[7]; Compound III-1 alone 10 mg/kg BID,99.7%
same,TGI,[7]; Compound III-1 alone 20 mg/kg BID,99.7%
same,mean maximum body weight loss,"[7]; Compound III-1 at 20 mg/kg BID, Day 9",8.9%
same,number of mice remaining at the end of the study,[7]; 10 mg/kg single agent Compound III-1,1 out of 10
same,number of mice remaining at the end of the study,[7]; 20 mg/kg Compound III-1 single agent,5 out of 10
same,Pct Decrease in AUC Relative to Mean Vehicle AUC,[7]; Compound III-1 10 mg/kg,94.0%
same,Pct Decrease in AUC Relative to Mean Vehicle AUC,[7]; Compound III-1 20 mg/kg,96.6%

# — patent publication US10391100B2, “Combination of aurora kinase inhibitors and anti-CD20 antibodies” (Millennium Pharmaceuticals, Inc., priority 2008, dated 2019)
